From ChEMBL document CHEMBL5236544, “Furazans in Medicinal Chemistry” (J Med Chem, 2021)
Where “and” joins values, the source holds several entries; their conditions need not be identical. Identical values can stand only once. Values belong to the compound of their own block, whether it stands above or below them.

Key:
Rattus norvegicus [1] = experiment: Antihypertensive activity in spontaneously hypertensive rat model assessed as change in heart rate at 10 mg/Kg, po measured after 6 hrs; type: functional
Rattus norvegicus [2] = species: Rattus norvegicus; experiment: Antihypertensive activity in spontaneously hypertensive rat model assessed as reduction in systemic arterial pressure; type: functional
Rattus norvegicus [3] = experiment: Antihypertensive activity in spontaneously hypertensive rat model assessed as change in heart rate at 1 mmol/Kg, po measured after 3 hrs; type: functional
Rattus norvegicus [4] = experiment: Antihypertensive activity in spontaneously hypertensive rat model assessed as change in blood pressure at 10 mg/kg, po measured after 10 hrs; type: functional
Rattus norvegicus [5] = experiment: Antihypertensive activity in spontaneously hypertensive rat model assessed as change in blood pressure at 10 mg/kg, po measured after 6 hrs; type: functional
Rattus norvegicus [6] = species: Rattus norvegicus; experiment: Antihypertensive activity in spontaneously hypertensive rat model assessed as reduction in pulmonary arterial pressure; type: functional
Rattus norvegicus [7] = experiment: Antihypertensive activity in spontaneously hypertensive rat model assessed as change in heart rate at 1 mmol/Kg, po measured after 10 hrs; type: functional
Rattus norvegicus [8] = experiment: Antihypertensive activity in spontaneously hypertensive rat model assessed as change in blood pressure at 10 mg/kg, po measured after 3 hrs; type: functional
Rattus norvegicus [9] = experiment: Antihypertensive activity in spontaneously hypertensive rat model assessed as change in blood pressure at 1 mg/kg, po measured after 3 hrs; type: functional
Rattus norvegicus [10] = experiment: Antihypertensive activity in spontaneously hypertensive rat model assessed as change in blood pressure at 1 mg/kg, po measured after 10 hrs; type: functional
Rattus norvegicus [11] = experiment: Antihypertensive activity in spontaneously hypertensive rat model assessed as change in blood pressure at 1 mg/kg, po measured after 6 hrs; type: functional
Rattus norvegicus [12] = experiment: Antihypertensive activity in spontaneously hypertensive rat model assessed as change in heart rate at 1 umol/kg, po measured after 3 hrs; type: functional
[13] = Half life in rat, iv; type: ADME; settings: in vivo
HCT-116 [14] = experiment: Antiproliferative activity against human HCT-116 cells assessed as inhibition of cell proliferation by MTT assay; type: functional, cell-based
A549 [15] = experiment: Antiproliferative activity against human A549 cells assessed as inhibition of cell proliferation by MTT assay; type: functional, cell-based
[16] = Antiproliferative activity against mouse Lewis lung carcinoma cell line cells assessed as inhibition of cell proliferation by MTT assay; type: functional, cell-based
A549 [17] = experiment: Antitumor activity against human A549 cells xenografted in mouse model assessed as reduction in tumor growth at 100 mg/kg bid relative to control; type: functional; design: scale not given: the % may be the effect or the level left
Histone deacetylase = experiment: Inhibition of HDAC (unknown origin); type: protein assay, Homo sapiens
A549 [18] = experiment: Antiproliferative activity against human A549 cells assessed as inhibition of cell proliferation incubated for 24 hrs by MTT assay; type: functional, cell-based; settings: A549, 24 h
HCT-116 [19] = experiment: Antiproliferative activity against human HCT-116 cells assessed as inhibition of cell proliferation incubated for 24 hrs by MTT assay; type: functional, cell-based; settings: HCT-116, 24 h
HL-60 = experiment: Antiproliferative activity against human HL-60 cells assessed as inhibition of cell proliferation incubated for 24 hrs by MTT assay; type: functional, cell-based; settings: HL-60, 24 h
HeLa [20] = experiment: Antitumor activity against human HeLa cells xenografted in mouse model assessed as reduction in tumor growth at 100 mg/kg bid relative to control; type: functional; design: scale not given: the % may be the effect or the level left
SK-OV-3 [21] = experiment: Antitumor activity against human SK-OV-3 cells in xenografted mouse model assessed as reduction in tumor growth at 30 mg/kg, ip administered daily for 21 days relative to control; type: functional; design: scale not given: the % may be the effect or the level left; settings: time 21 day
HCC1954 = experiment: Antitumor activity against human HCC1954 cells in xenografted mouse model assessed as reduction in tumor growth at 30 mg/kg, ip administered daily for 21 days relative to control; type: functional; design: scale not given: the % may be the effect or the level left; settings: time 21 day
PANC-1 = experiment: Antitumor activity against human PANC-1 cells in xenografted mouse model assessed as reduction in tumor growth at 30 mg/kg, ip administered daily for 21 days relative to control; type: functional; design: scale not given: the % may be the effect or the level left; settings: time 21 day
BT-474 = experiment: Antitumor activity against human BT-474 cells in xenografted mouse model assessed as reduction in tumor growth at 30 mg/kg, ip administered daily for 21 days relative to control; type: functional; design: scale not given: the % may be the effect or the level left; settings: time 21 day
MDA-MB-453 = experiment: Antitumor activity against human MDA-MB-453 cells in xenografted mouse model assessed as reduction in tumor growth at 30 mg/kg, ip administered daily for 21 days relative to control; type: functional; design: scale not given: the % may be the effect or the level left; settings: time 21 day
LNCaP = experiment: Antitumor activity against human LNCaP cells in xenografted mouse model assessed as reduction in tumor growth at 30 mg/kg, ip administered daily for 21 days relative to control; type: functional; design: scale not given: the % may be the effect or the level left; settings: time 21 day
[22] = Stability in rat assessed as intrinsic clearance; type: ADME; settings: CLH
HeLa [23] = experiment: Antitumor activity against human HeLa cells xenografted in mouse model assessed as reduction in tumor growth at 75 mg/kg bid relative to control; type: functional; design: scale not given: the % may be the effect or the level left
[24] = Half life in mouse; type: ADME, organism-based; settings: in vivo
HeLa [25] = experiment: Antitumor activity against human HeLa cells xenografted in mouse assessed as reduction in tumor growth at 30 mg/kg bid relative to control; type: functional; design: scale not given: the % may be the effect or the level left
[26] = Oral bioavailability in rat at 3 mg/kg relative to control; type: ADME, organism-based; settings: in vivo
HeLa [27] = experiment: Antiproliferative activity against human HeLa cells assessed as cell growth inhibition; type: functional, cell-based
[28] = biological target: Ribosomal protein S6 kinase beta-1 (Homo sapiens, UniProt P23443); experiment: Inhibition of p70S6 (unknown origin) […]
SK-OV-3 [29] = experiment: Antiproliferative activity against human SK-OV-3 cells assessed as inhibition of cell proliferation by MTT assay; type: functional, cell-based
SK-OV-3 [30] = experiment: Antitumor activity against human SK-OV-3 cells xenografted in mouse model assessed as reduction in tumor growth at 100 mg/kg bid relative to control; type: functional; design: scale not given: the % may be the effect or the level left
[31] = Half life in human liver microsomes; type: ADME

Sequence of Ribosomal protein S6 kinase beta-1 (P23443 whole entry): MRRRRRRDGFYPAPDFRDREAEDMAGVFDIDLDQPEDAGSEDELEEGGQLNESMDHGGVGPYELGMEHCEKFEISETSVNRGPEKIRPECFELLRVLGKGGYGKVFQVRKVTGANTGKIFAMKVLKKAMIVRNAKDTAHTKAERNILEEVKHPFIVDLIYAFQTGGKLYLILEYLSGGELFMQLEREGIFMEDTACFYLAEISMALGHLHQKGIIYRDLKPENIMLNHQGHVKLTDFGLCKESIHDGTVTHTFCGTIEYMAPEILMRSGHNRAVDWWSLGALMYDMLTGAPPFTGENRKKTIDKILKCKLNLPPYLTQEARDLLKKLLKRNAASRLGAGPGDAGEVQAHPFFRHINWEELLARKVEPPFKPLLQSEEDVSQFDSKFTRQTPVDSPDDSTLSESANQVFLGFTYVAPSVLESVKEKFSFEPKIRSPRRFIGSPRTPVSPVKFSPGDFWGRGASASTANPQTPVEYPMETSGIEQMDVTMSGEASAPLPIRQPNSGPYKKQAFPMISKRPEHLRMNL

SMILES: C[C@@H](N)[C@H]1CC[C@H](C(=O)Nc2ccncc2)CC1 [Y-27632]
Activity (Rattus norvegicus [1]): 10 bpm
Activity (Rattus norvegicus [2]): -32 mmHg
Activity (Rattus norvegicus [3]): 75 bpm
Activity (Rattus norvegicus [4]): -5 mmHg
Activity (Rattus norvegicus [5]): -10 mmHg
Activity (Rattus norvegicus [6]): -10 mmHg
Activity (Rattus norvegicus [7]): 0 bpm
Activity (Rattus norvegicus [8]): -25 mmHg

SMILES: CCn1c(-c2nonc2N)nc2cncc(C(=O)N3CC[C@H](N)C3)c21
Activity (Rattus norvegicus [9]): -20 mmHg
Activity (Rattus norvegicus [1]): -40 bpm
Activity (Rattus norvegicus [2]): -40 mmHg
Activity (Rattus norvegicus [10]): -5 mmHg
Activity (Rattus norvegicus [11]): -20 mmHg
Activity (Rattus norvegicus [6]): -13 mmHg
Activity (Rattus norvegicus [7]): -25 bpm
Activity (Rattus norvegicus [12]): 20 bpm

half-life [13]: 3.4 h
EC50 (HCT-116 [14]): 5100 nM
EC50 (A549 [15]): 170 nM
IC50 (Histone deacetylase): 67 nM
SMILES: Nc1ccccc1NC(=O)c1ccc(C(=O)NCCNc2nonc2/C(=N/O)Nc2ccc(F)c(Br)c2)cc1
EC50 [16]: 18000 nM
Activity (A549 [17]): 56% and 54%

EC50 (A549 [18]): 800 nM
EC50 (HCT-116 [19]): 1600 nM
EC50 (HL-60): 1200 nM
SMILES: Nc1nonc1C(=O)N/N=C1\c2ccccc2-c2nc3nonc3nc21

half-life [13]: 3.7 h
SMILES: O=C(CNc1nonc1/C(=N/O)N[C@H]1Cc2ccc(F)cc21)NCCO
Activity (HeLa [20]): 15%

SMILES: CCn1c(-c2nonc2N)nc2c(C#CC(C)(C)O)ncc(OC[C@H]3CCCNC3)c21 [GSK-690693]
Activity (SK-OV-3 [21]): 58%
Activity (HCC1954): 65%
Activity (PANC-1): 5%
Activity (BT-474): 46%
Activity (MDA-MB-453): 27%
Activity (LNCaP): 50%

CLint scaled [22]: 11.7 mL/min/kg
half-life [24]: < 0.5 h
bioavailability [26]: 11%
SMILES: NS(=O)(=O)NCCNc1nonc1/C(=N/O)Nc1ccc(F)c(Br)c1 [EPACADOSTAT]
Activity (HeLa [23]): 50%
Activity (HeLa [25]): 56%

EC50 (HeLa [27]): 15100 nM
SMILES: Cc1ccc(/C=N/NC(=O)c2nnn(-c3nonc3N)c2-c2ccc([N+](=O)[O-])cc2)cc1

IC50 [28]: 19 nM
SMILES: Cc1ccc2c(c1)nc(-c1nonc1N)n2C1CCC1

EC50 (SK-OV-3 [29]): 10 nM
half-life [31]: > 3 h
SMILES: NS(=O)(=O)CC(=O)NCCSc1nonc1/C(=N/O)Nc1cccc(Cl)c1
Activity (SK-OV-3 [30]): 50%
